SMILES strings stand for the structures. Counter-ions that a name gives are not always drawn.

The source of these data is patent US20230240994A1, “MEDICAMENT-CONTAINING HOLLOW PARTICLE” (Sumitomo Pharma Co., Ltd., priority 2012, published 2023).

A short description of one data set: Particle size distribution by laser diffraction particle size analyzer (volume basis). In kind it is physicochemical. As to conditions: medicament used (raw material), laser diffraction SALD-3000J. As to the method: In the present invention, the “average particle size” means cumulative 50% particle size D50 in the volume based measurement of powder particles. Such average particle size is measured by a laser diffraction particle size analyzer (e.g., Particle Viewer manufactured by POWREX CORPORATION, or SALD-3000J manufactured by Shimadzu Corporation, or HELOS&RODOS manufactured by Sympatec GmbH) by volume basis.
The particle size distribution of medicament, polymer, other additive, a mixed powder of the medicament and other additive, and the obtained medicament-containing particle was measured by a laser diffraction particle size analyzer (manufactured by POWREX CORPORATION, Particle Viewer) or laser diffraction particle size analyzer (manufactured by Shimadzu Corporation, SAID-3000J) by volume basis.
In the case of `NS(=O)(=O)Cc1noc2ccccc12` [Compound A (D50: 2.7 μm)], the “particle size distribution D10” value came out at 0.7 μm, the “particle size distribution D50” value worked out at 2.7 μm and the “particle size distribution D90” value is 5.6 μm.
With `NS(=O)(=O)Cc1noc2ccccc12` [Compound A (D50: 6.9 μm)], the “particle size distribution D10” value came to 1.0 μm, the “particle size distribution D50” value is 6.9 μm and the “particle size distribution D90” value came out at 26.8 μm.
As to `NS(=O)(=O)Cc1noc2ccccc12` [Compound A (D50: 9.9 μm)], the “particle size distribution D10” value worked out at 1.2 μm, the “particle size distribution D50” value was 9.9 μm and the “particle size distribution D90” value came to 42.9 μm.
For `NS(=O)(=O)Cc1noc2ccccc12` [Compound A, 1,2-benzisoxazole-3-methanesulfonamide, reference compound], the “particle size distribution D10” value worked out at 0.7 μm, the “particle size distribution D50” value was 2.7 μm and the “particle size distribution D90” value worked out at 5.6 μm.

Staying with this data set, now noted: micronized product of Compound A used in Comparative Example 3-2.
In the case of `NS(=O)(=O)Cc1noc2ccccc12` [Compound A, 1,2-benzisoxazole-3-methanesulfonamide, reference compound], the “particle size distribution D10” value is listed as 3.2 μm, the “particle size distribution D50” value came out at 13.3 μm and the “particle size distribution D90” value is 40.8 μm.

The data set is the same for the next values; noted with them: starting material as used (medicament, polymer, other additive, mixed powder); volume basis.
As to `NS(=O)(=O)Cc1noc2ccccc12` [Compound A, 1,2-benzisoxazole-3-methanesulfonamide, reference compound], the “particle size distribution D10” value is reported as 0.7 μm, the “particle size distribution D50” value was 2.7 μm and the “particle size distribution D90” value was 5.6 μm.
With `Cl.O=C1[C@@H]2[C@H]3CC[C@H](C3)[C@@H]2C(=O)N1C[C@@H]1CCCC[C@H]1CN1CCN(c2nsc3ccccc23)CC1` [Compound B, (3aR,4S,7R,7aS)-2-{(1R,2R)-2-[4-(1,2-benzisothiazol-3-yl)piperazin-1-ylmethyl]cyclohexylmethyl}hexahydro-4,7-methano-2H-isoindole-1,3-dione hydrochloride, reference compound], the “particle size distribution D10” value is 0.5 μm, the “particle size distribution D50” value is 1.5 μm and the “particle size distribution D90” value was found to be 3.3 μm.
`Nc1ccc(O)c(C(=O)O)c1` [Compound D, 5-amino-2-hydroxybenzoic acid, reference compound]: the “particle size distribution D10” value came to 1.3 μm, the “particle size distribution D50” value is given as 4.6 μm and the “particle size distribution D90” value amounted to 12.7 μm.
Consider `C[C@@H](c1ccc(-c2ccccc2)c(F)c1)c1cc(N=C(N)N2CCOCC2)on1` [Compound E, 3-[(1S)-1-(2-fluorobiphenyl-4-yl)ethyl]-5-{[amino(morpholin-4-yl)methylene]amino}isoxazole], for which the “particle size distribution D10” value amounted to 1.3 μm, the “particle size distribution D50” value stood at 3.2 μm and the “particle size distribution D90” value is reported as 6.3 μm.
Taken in the same sequence, the figures for `COc1cccc(-c2nccc3[nH]c(=O)c(-c4noc(C)n4)cc23)c1` [Compound F, 5-(3-methoxyphenyl)-3-(5-methyl-1,2,4-oxadiazol-3-yl)-2-oxo-1,2-dihydro-1,6-naphthyridine] were 0.6 μm, 2.5 μm and 5.0 μm.
Regarding `COc1ccc2c(c1)c(CC(=O)O)c(C)n2C(=O)c1ccc(Cl)cc1` [Compound G, 1-(4-chlorobenzoyl)-5-methoxy-2-methyl-1-H-indole-3-acetic acid, reference compound], the “particle size distribution D10” value is given as 0.8 μm, the “particle size distribution D50” value turned out to be 3.1 μm and the “particle size distribution D90” value is given as 8.1 μm.
As to `OC[C@@H](O)[C@@H](O)[C@H](O)[C@H](O)CO` [D-mannitol (JM pulverized product), D-mannitol], the “particle size distribution D10” value is reported as 0.5 μm, the “particle size distribution D50” value stood at 2.0 μm and the “particle size distribution D90” value is reported as 4.2 μm.
For the molecule `OC[C@@H](O)[C@@H](O)[C@H](O)[C@H](O)CO` [D-mannitol (PEARLITOL 50C), D-mannitol], the “particle size distribution D10” value was 6.9 μm, the “particle size distribution D50” value was 47.0 μm and the “particle size distribution D90” value was 125.2 μm.
Consider `CC(=O)Nc1ccc(O)cc1` [acetaminophen, reference compound], for which the “particle size distribution D10” value was found to be 2.8 μm, the “particle size distribution D50” value came to 11.6 μm and the “particle size distribution D90” value is recorded as 46.1 μm.
As to `OC[C@H]1O[C@@H](O[C@H]2[C@H](O)[C@@H](O)C(O)O[C@@H]2CO)[C@H](O)[C@@H](O)[C@H]1O` (stereo partly drawn) [lactose (Pharmatose 200M), lactose], the “particle size distribution D10” value is 4.0 μm, the “particle size distribution D50” value was found to be 48.7 μm and the “particle size distribution D90” value is reported as 129.0 μm.
Turning to `O=C([O-])[O-].[Mg+2]` [magnesium carbonate (light), magnesium carbonate], the “particle size distribution D10” value came to 0.9 μm, the “particle size distribution D50” value is 4.0 μm and the “particle size distribution D90” value was 10.6 μm.
`CCOc1cc(N)c(Cl)cc1C(=O)NCC1CN(Cc2ccc(F)cc2)CCO1` (stereo not drawn) [mosapride citrate, reference compound]: the “particle size distribution D10” value was found to be 2.3 μm, the “particle size distribution D50” value turned out to be 9.2 μm and the “particle size distribution D90” value was 30.6 μm.
